Test results reported in the supplement of paper PMC10307832.

Assays:
Assay in all cases: relative viability (nuclei count vs DMSO), 5 days (fraction); higher = more cells survive
BI-D1870 + Crizotinib = compound: CC(C)CCN1c2nc(Nc3cc(F)c(O)c(F)c3)ncc2N(C)C(=O)C1C [BI-D1870] + C[C@@H](Oc1cc(-c2cnn(C3CCNCC3)c2)cnc1N)c1c(Cl)ccc(F)c1Cl [Crizotinib] (partner 1 µM)
In short: (§1)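 After 5 days of treatment, lung cancer cells in 1536-well plates were fixed and stained in a single step (final 0.05% Triton X-100, 1% formaldehyde, 1 ug/ml Hoechst) and their nuclei counted on 4× images. Treatment had been applied by pin tool the day after seeding as one drug alone or as a fixed anchor-drug dose with five library-drug doses (not always all listed) in √10 steps. Relative viability is the nuclei count of treated wells divided by that of vehicle wells, and values are medians of duplicate plates.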

BI-D1870 + Linsitinib = compound: CC(C)CCN1c2nc(Nc3cc(F)c(O)c(F)c3)ncc2N(C)C(=O)C1C [BI-D1870] + C[C@]1(O)C[C@@H](c2nc(-c3ccc4ccc(-c5ccccc5)nc4c3)c3c(N)nccn32)C1 [Linsitinib] (partner 1 µM)
In short: as §1

Zebularine + Palbociclib = compound: O=c1ncccn1[C@@H]1O[C@H](CO)[C@@H](O)[C@H]1O [Zebularine] + CC(=O)c1c(C)c2cnc(Nc3ccc(N4CCNCC4)cn3)nc2n(C2CCCC2)c1=O [Palbociclib] (partner 0.5 µM)
In short: as §1

Zebularine + Decitabine = compound: O=c1ncccn1[C@@H]1O[C@H](CO)[C@@H](O)[C@H]1O [Zebularine] + Nc1ncn([C@H]2C[C@H](O)[C@@H](CO)O2)c(=O)n1 [Decitabine] (partner 2 µM)
In short: as §1

Row | Cell Line | relative viability (BI-D1870 + Crizotinib; first compound 0.04 µM) | relative viability (BI-D1870 + Crizotinib; first compound 0.1265 µM) | relative viability (BI-D1870 + Crizotinib; first compound 0.4 µM) | relative viability (BI-D1870 + Crizotinib; first compound 1.265 µM) | relative viability (BI-D1870 + Crizotinib; first compound 4 µM) | relative viability (BI-D1870 + Linsitinib; first compound 0.04 µM) | relative viability (BI-D1870 + Linsitinib; first compound 0.1265 µM) | relative viability (BI-D1870 + Linsitinib; first compound 0.4 µM) | relative viability (BI-D1870 + Linsitinib; first compound 1.265 µM) | relative viability (BI-D1870 + Linsitinib; first compound 4 µM) | relative viability (Zebularine + Palbociclib; first compound 1 µM) | relative viability (Zebularine + Palbociclib; first compound 3.162 µM) | relative viability (Zebularine + Palbociclib; first compound 10 µM) | relative viability (Zebularine + Palbociclib; first compound 31.62 µM) | relative viability (Zebularine + Palbociclib; first compound 100 µM) | relative viability (Zebularine + Decitabine; first compound 1 µM) | relative viability (Zebularine + Decitabine; first compound 3.162 µM) | relative viability (Zebularine + Decitabine; first compound 10 µM) | relative viability (Zebularine + Decitabine; first compound 31.62 µM) | relative viability (Zebularine + Decitabine; first compound 100 µM)
1 | LOU-NH91 | 0.8 | 0.702 | 0.735 | 0.75 | 0.647 | 0.98 | 0.908 | 0.996 | 0.986 | 0.769 | 0.54 | 0.524 | 0.518 | 0.552 | 0.47 | 0.842 | 0.802 | 0.744 | 0.849 | 0.593
2 | LU99A | 0.692 | 0.539 | 0.552 | 0.547 | 0.508 | 0.617 | 0.435 | 0.519 | 0.48 | 0.496 | 0.483 | 0.433 | 0.331 | 0.278 | 0.187 | 0.906 | 0.813 | 0.61 | 0.392 | 0.215
3 | LXF-289 | 0.905 | 0.796 | 0.797 | 0.793 | 0.619 | 1.05 | 0.91 | 0.943 | 0.947 | 0.916 | 0.641 | 0.66 | 0.573 | 0.395 | 0.233 | 0.362 | 0.331 | 0.382 | 0.345 | 0.24
4 | NCI-H23 | 0.527 | 0.424 | 0.509 | 0.667 | 0.559 | 0.911 | 0.385 | 0.586 | 0.61 | 0.685 | 0.482 | 0.473 | – | 0.576 | 0.411 | 0.344 | 0.342 | – | 0.303 | 0.335
5 | NCI-H322M | 0.924 | 0.822 | 0.795 | 1.05 | 0.651 | 1.05 | 0.904 | 0.826 | 0.879 | 0.883 | 0.467 | 0.486 | 0.471 | 0.463 | 0.496 | 0.712 | 0.636 | 0.614 | 0.696 | 0.675
6 | NCI-H358 | 0.772 | 0.598 | 0.475 | 0.456 | 0.213 | 0.694 | 0.705 | 0.812 | 0.625 | 0.381 | 0.213 | 0.128 | 0.134 | 0.131 | 0.132 | 0.219 | 0.172 | 0.178 | 0.214 | 0.144
7 | NCI-H441 | 1.01 | 0.696 | 0.925 | 0.738 | 0.448 | 0.871 | 0.429 | 0.481 | 0.493 | 0.518 | 0.235 | 0.21 | 0.207 | 0.148 | 0.181 | 0.246 | 0.237 | 0.266 | 0.184 | 0.16
8 | NCI-H460 | 1.2 | 0.76 | 0.84 | 0.926 | 0.14 | 0.974 | 0.629 | 0.655 | 0.434 | 0.0477 | 0.201 | 0.136 | 0.161 | 0.117 | 0.0697 | 0.549 | 0.504 | 0.236 | 0.467 | 0.112
9 | NCI-H520 | 1.05 | 0.687 | 0.766 | 0.824 | 0.476 | 1 | 0.846 | 0.985 | 0.803 | 0.678 | 0.213 | 0.217 | 0.202 | 0.201 | 0.175 | 0.552 | 0.49 | 0.399 | 0.299 | 0.233
10 | NCI-H647 | 1.05 | 1.03 | 1.12 | 1.2 | 0.799 | 1.14 | 1.2 | 1.26 | 1.22 | 0.871 | 0.334 | 0.34 | 0.149 | 0.0894 | 0.104 | 0.391 | 0.369 | 0.187 | 0.144 | 0.14
11 | NCI-H650 | 0.672 | 0.667 | 0.695 | 0.662 | 0.405 | 1.12 | 0.733 | 0.905 | 0.704 | 0.855 | 0.358 | 0.376 | 0.296 | 0.263 | 0.195 | 0.28 | 0.285 | 0.31 | 0.298 | 0.297
12 | NCI-H661 | 1.24 | 0.963 | 0.973 | 1.05 | 0.902 | 0.515 | 0.485 | 0.489 | 0.535 | 0.593 | 0.406 | 0.4 | 0.425 | 0.435 | 0.438 | 0.564 | 0.551 | 0.48 | 0.608 | 0.505
13 | NCI-H727 | 0.986 | 0.672 | 0.938 | 0.922 | 0.853 | 0.323 | 0.328 | 0.252 | 0.371 | 0.261 | 0.652 | 0.729 | 0.69 | 0.634 | 0.618 | 0.855 | 0.903 | 0.867 | 0.84 | 0.826
14 | NCI-H838 | 0.902 | 0.715 | 0.926 | 0.949 | 0.932 | 1.13 | 0.962 | 0.998 | 1.13 | 0.957 | 0.222 | 0.257 | 0.223 | 0.238 | 0.219 | 0.504 | 0.49 | 0.489 | 0.42 | 0.289
15 | NCI-H1355 | 1.12 | 0.985 | 1.1 | 1.08 | 1.11 | 0.842 | 0.81 | 0.788 | 0.788 | 0.75 | 0.402 | 0.371 | 0.384 | 0.303 | 0.252 | 0.34 | 0.329 | 0.334 | 0.314 | 0.28
16 | NCI-H1437 | 1.04 | 0.811 | 0.873 | 0.794 | 0.677 | 1.06 | 0.943 | 0.979 | 0.909 | 0.691 | 0.308 | 0.33 | 0.308 | 0.453 | 0.329 | 0.617 | 0.639 | 0.464 | 0.686 | 0.528
